Laboratory results: patent publication US9409892B2, “4-hydroxy-isoquinoline compounds as HIF hydroxylase inhibitors” (FIBROGEN, INC., priority 2012, dated 2016)
Values joined by “and” are separate entries in the source; they are usually repeats but may differ in a detail not shown here. Equal values may be shown once. Read-outs that look alike come from different tables or passages of the source.

How the values were obtained:
PHD1 (EGLN2) = PHD1 (EGLN2) (Homo sapiens (Human), UniProt Q96KS0); assay: HIF-PH assay (14CO2 capture), PHD1 enzyme inhibition; format: biochemical; conditions: for PHD2/PHD1 avg.: average of the ratios of multiple independent measurements
Sequence of PHD1 (EGLN2) (Q96KS0 whole entry, the tested form may be a part): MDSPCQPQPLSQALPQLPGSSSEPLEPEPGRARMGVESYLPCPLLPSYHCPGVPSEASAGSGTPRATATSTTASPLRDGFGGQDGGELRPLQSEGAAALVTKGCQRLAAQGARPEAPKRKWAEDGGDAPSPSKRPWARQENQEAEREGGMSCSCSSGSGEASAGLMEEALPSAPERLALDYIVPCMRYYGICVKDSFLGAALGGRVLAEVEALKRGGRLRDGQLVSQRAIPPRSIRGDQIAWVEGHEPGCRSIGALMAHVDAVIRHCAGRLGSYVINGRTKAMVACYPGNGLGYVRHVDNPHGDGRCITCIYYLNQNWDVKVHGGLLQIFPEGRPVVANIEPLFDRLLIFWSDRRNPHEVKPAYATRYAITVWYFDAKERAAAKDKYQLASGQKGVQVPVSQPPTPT
Text: (§1) Ketoglutaric acid α-[1-^14C]-sodium salt, alpha-ketoglutaric acid sodium salt, and HPLC purified peptide may be obtained from commercial sources, e.g., Perkin-Elmer (Wellesley Mass.), Sigma-Aldrich, and SynPep Corp. (Dublin Calif.), respectively. Peptides for use in the assay may be fragments of HIFα as described above or as disclosed in International Publication WO 2005/118836, incorporated by reference herein. HIF-pH, e.g., PHD1 (EGLN2) or PHD2 (EGLN1), can be expressed in, e.g., insect Hi5 cells, and partially purified, e.g., through a SP ion exchange chromatography column. Enzyme activity is determined by capturing ^14CO2 using an assay described by Kivirikko and Myllyla (1982, Methods Enzymol. 82:245-304). Assay reactions contain 50 mM HEPES (pH 7.4), 100 μM α-ketoglutaric acid sodium salt, 0.30 mCi/mL ketoglutaric acid α-[1-^14C]-sodium salt, 40 μM FeSO4, 1 mM ascorbate, 1541.8 units/mL Catalase, with or without 50 μM peptide substrate and various concentrations of compound of the invention. Reactions are initiated by addition of HIF-PH enzyme.
(§2) The peptide-dependent percent turnover is calculated by subtracting percent turnover in the absence of peptide from percent turnover in the presence of substrate peptide. Percent inhibition and IC50 are calculated using peptide-dependent percent turnover at given inhibitor concentrations. Calculation of IC50 values for each inhibitor is conducted using GraFit software (Erithacus Software Ltd., Surrey UK).
(§3) The PHD2/PHD1 is the ratio of the IC50 of the compound for each enzyme.

PHD2 (EGLN1) = PHD2 (EGLN1) (Homo sapiens (Human), UniProt Q9GZT9); assay: HIF-PH assay (14CO2 capture), PHD2 enzyme inhibition; format: biochemical; conditions: Table 1
Sequence of PHD2 (EGLN1) (Q9GZT9 whole entry): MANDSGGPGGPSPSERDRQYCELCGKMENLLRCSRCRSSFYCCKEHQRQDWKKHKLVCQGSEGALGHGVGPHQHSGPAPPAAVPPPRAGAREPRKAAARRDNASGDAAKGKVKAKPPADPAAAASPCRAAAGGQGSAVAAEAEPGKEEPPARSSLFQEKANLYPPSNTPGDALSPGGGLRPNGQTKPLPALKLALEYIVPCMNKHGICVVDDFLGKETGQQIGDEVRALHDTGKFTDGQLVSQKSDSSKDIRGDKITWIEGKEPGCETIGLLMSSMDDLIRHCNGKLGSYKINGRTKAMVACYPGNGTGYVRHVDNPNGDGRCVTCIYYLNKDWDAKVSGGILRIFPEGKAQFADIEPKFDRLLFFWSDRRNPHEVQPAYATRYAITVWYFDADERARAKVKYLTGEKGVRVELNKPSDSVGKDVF
Text: as §1, §2, §3

[1] = Table 1, individual measurement, read-out: IC50 (μM) PHD1
[2] = Table 1, ratio of the IC50 of the compound for each enzyme
[3] = individual measurement, read-out: IC50 (μM) PHD2
[4] = Table 1, average of multiple independent measurements, read-out: IC50 (μM) PHD1 avg.
[5] = average of multiple independent measurements, read-out: IC50 (μM) PHD2 avg.

Compound | IC50 (PHD1 (EGLN2); [1]) | PHD2/PHD1 (PHD1 (EGLN2); [2]) | IC50 (PHD2 (EGLN1); [3]) | IC50 (PHD1 (EGLN2); [4]) | PHD2/PHD1 avg. (PHD1 (EGLN2); Table 1) | IC50 (PHD2 (EGLN1); [5]) | PHD2/PHD1 (PHD1 (EGLN2)) | IC50 (PHD1 (EGLN2); read-out: IC50 (μM) PHD1)
N#Cc1nc(C(=O)NC[C@H](Cc2ccccc2)C(=O)O)c(O)c2ccc(Oc3ccccc3)cc12 [Compound 49, (S)-2-Benzyl-3-[(1-cyano-4-hydroxy-7-phenoxy-isoquinoline-3-carbonyl)-amino]-propionic acid] | 1.66 µM | 14 | 23.9 µM |  |  |  |  | 
N#Cc1nc(C(=O)NCC[C@@H](N)C(=O)O)c(O)c2ccc(Oc3ccccc3)cc12 [Compound 50, (R)-2-Amino-4-(1-cyano-4-hydroxy-7-phenoxyisoquinoline-3-carboxamido)butanoic acid] | 5.19 µM | 9 | 45.4 µM |  |  |  |  | 
CC(=O)N[C@H](CCNC(=O)c1nc(C#N)c2cc(Oc3ccccc3)ccc2c1O)C(=O)O [Compound 51, (R)-2-Acetylamino-4-[(1-cyano-4-hydroxy-7-phenoxy-isoquinoline-3-carbonyl)-amino]-butyric acid] | 0.28 µM | 7.5 | 2.1 µM |  |  |  |  | 
CCNC(=O)N[C@H](CCNC(=O)c1nc(C#N)c2cc(Oc3ccccc3)ccc2c1O)C(=O)O [Compound 52, (R)-4-(1-Cyano-4-hydroxy-7-phenoxyisoquinoline-3-carboxamido)-2-(3-ethylureido)butanoic acid] | 1.33 µM | 18.6 | 24.7 µM |  |  |  |  | 
COC(=O)N[C@H](CCNC(=O)c1nc(C#N)c2cc(Oc3ccccc3)ccc2c1O)C(=O)O [Compound 53, (R)-4-(1-Cyano-4-hydroxy-7-phenoxyisoquinoline-3-carboxamido)-2-(methoxycarbonylamino)butanoic acid] | 0.24 µM | 5.8 | 1.4 µM |  |  |  |  | 
CN(C)C(=O)N[C@H](CCNC(=O)c1nc(C#N)c2cc(Oc3ccccc3)ccc2c1O)C(=O)O [Compound 54, (R)-4-(1-Cyano-4-hydroxy-7-phenoxyisoquinoline-3-carboxamido)-2-(3,3-dimethylureido)butanoic acid] | 1.81 µM | 6.1 | 11 µM |  |  |  |  | 
N#Cc1nc(C(=O)NCC[C@@H](NC(N)=O)C(=O)O)c(O)c2ccc(Oc3ccccc3)cc12 [Compound 55, (R)-4-(1-Cyano-4-hydroxy-7-phenoxyisoquinoline-3-carboxamido)-2-ureidobutanoic acid] | 1.1 µM | 8 | 9.1 µM |  |  |  |  | 
N#Cc1nc(C(=O)NCCC(=O)C(=O)O)c(O)c2ccc(Oc3ccccc3)cc12 [Compound 56, 4-(1-Cyano-4-hydroxy-7-phenoxyisoquinoline-3-carboxamido)-2-oxobutanoic acid] | 0.26 µM | 7 | 1.8 µM |  |  |  |  | 
CCC(CNC(=O)c1nc(C#N)c2cc(Oc3ccccc3)ccc2c1O)C(=O)O (stereo not shown) [Compound 57, 2-((1-Cyano-4-hydroxy-7-phenoxyisoquinoline-3-carboxamido)methyl)butanoic acid] | 0.54 µM | 9 | 5.1 µM |  |  |  |  | 
CCC(C)(CNC(=O)c1nc(C#N)c2cc(Oc3ccccc3)ccc2c1O)C(=O)O (stereo not shown) [Compound 58, 2-{[(1-Cyano-4-hydroxy-7-phenoxy-isoquinoline-3-carbonyl)-amino]-methyl}-2-methyl-butyric acid] | 1.1 µM | 11 | 12.3 µM |  |  |  |  | 
CC(C)(CNC(=O)c1nc(C#N)c2cc(Oc3ccc4ccccc4c3)ccc2c1O)C(=O)O [Compound 59, 3{-[1-Cyano-4-hydroxy-7-(naphthalen-2-yloxy)-isoquinoline-3-carbonyl]-amino}-2,2-dimethyl-propionic acid] | 0.13 µM | 6.5 | 0.86 µM |  |  |  |  | 
COc1ccccc1Oc1ccc2c(O)c(C(=O)NCC(C)(C)C(=O)O)nc(C#N)c2c1 [Compound 60, 3{-[1-Cyano-4-hydroxy-7-(2-methoxy-phenoxy)-isoquinoline-3-carbonyl]-amino}-2,2-dimethyl-propionic acid] | 1 µM and 1.08 µM |  | 3.65 µM and 10.8 µM | 1.04 µM | 6.8 avg | 7.23 µM |  | 
CC(C)C(CC(=O)O)NC(=O)c1nc(C#N)c2cc(Oc3ccccc3)ccc2c1O (stereo not shown) [Compound 61, 3-[(1-Cyano-4-hydroxy-7-phenoxy-isoquinoline-3-carbonyl)-amino]-4-methyl-pentanoic acid] |  |  | > 200 µM |  |  |  | 6 | 33.3 µM
CCc1ccccc1Oc1ccc2c(O)c(C(=O)NCC(C)(C)C(=O)O)nc(C#N)c2c1 [Compound 62, 3{-[1-Cyano-7-(2-ethyl-phenoxy)-4-hydroxy-isoquinoline-3-carbonyl]-amino}-2,2-dimethyl-propionic acid] | 0.48 µM | 6 | 3.06 µM |  |  |  |  | 
CC[C@H](CC(=O)O)NC(=O)c1nc(C#N)c2cc(Oc3ccccc3)ccc2c1O [Compound 63, 3-(R)-[(1-Cyano-4-hydroxy-7-phenoxy-isoquinoline-3-carbonyl)-amino]-pentanoic acid] | 2.82 µM | 10 | 26.9 µM |  |  |  |  | 
C[C@H](CC(=O)O)NC(=O)c1nc(C#N)c2cc(Oc3ccccc3)ccc2c1O [Compound 64, 3-(R)-[(1-Cyano-4-hydroxy-7-phenoxy-isoquinoline-3-carbonyl)-amino]-butyric acid] | 0.93 µM | 14 | 12.6 µM |  |  |  |  | 
N#Cc1nc(C(=O)NCC(F)(F)C(=O)O)c(O)c2ccc(Oc3ccccc3)cc12 [Compound 65, 3-[(1-Cyano-4-hydroxy-7-phenoxy-isoquinoline-3-carbonyl)-amino]-2,2-difluoro-propionic acid] | 0.73 µM | 8 | 5.99 µM |  |  |  |  | 
CC(C)CC(CC(=O)O)NC(=O)c1nc(C#N)c2cc(Oc3ccccc3)ccc2c1O (stereo not shown) [Compound 66, 3-[(1-Cyano-4-hydroxy-7-phenoxy-isoquinoline-3-carbonyl)-amino]-5-methyl-hexanoic acid] | 6.23 µM and 4.8 µM |  | 26.5 µM and 80.5 µM | 5.52 µM | 10.5 avg. | 53.5 µM |  | 
C[C@@H](NC(=O)c1nc(C#N)c2cc(Oc3ccccc3)ccc2c1O)[C@@H](C)C(=O)O [Compound 69, (2R,3R)-3-[(1-Cyano-4-hydroxy-7-phenoxy-isoquinoline-3-carbonyl)-amino]-2-methyl-butyric acid] | 2.43 µM | 26 | 64.1 µM |  |  |  |  | 
C[C@H](C(=O)O)[C@@H](C)NC(=O)c1nc(C#N)c2cc(Oc3ccccc3)ccc2c1O [Compound 70, (2S,3R)-3-[(1-Cyano-4-hydroxy-7-phenoxy-isoquinoline-3-carbonyl)-amino]-2-methyl-butyric acid] | 1.86 µM | 35 | 65.8 µM |  |  |  |  | 
C[C@H](NC(=O)c1nc(C#N)c2cc(Oc3ccccc3)ccc2c1O)[C@H](C)C(=O)O [Compound 71, (2S,3S)-3-[(1-Cyano-4-hydroxy-7-phenoxy-isoquinoline-3-carbonyl)-amino]-2-methyl-butyric acid] | 2.77 µM | 39 | 107 µM |  |  |  |  | 
C[C@H](NC(=O)c1nc(C#N)c2cc(Oc3ccccc3)ccc2c1O)[C@@H](C)C(=O)O [Compound 72, (2R,3S)-3-[(1-Cyano-4-hydroxy-7-phenoxy-isoquinoline-3-carbonyl)-amino]-2-methyl-butyric acid] | 11.8 µM | 17 | 200 µM |  |  |  |  | 
C[C@](O)(CNC(=O)c1nc(C#N)c2cc(Oc3ccccc3)ccc2c1O)C(=O)O [Compound 73, (S)-3-(1-Cyano-4-hydroxy-7-phenoxyisoquinoline-3-carboxamido)-2-hydroxy-2-methylpropanoic acid] | 0.74 µM | 5 | 3.38 µM |  |  |  |  | 
N#Cc1nc(C(=O)N[C@H](Cc2ccccc2)[C@H](O)C(=O)O)c(O)c2ccc(Oc3ccccc3)cc12 [Compound 74, (2S,3R)-3-(1-Cyano-4-hydroxy-7-phenoxyisoquinoline-3-carboxamido)-2-hydroxy-4-phenylbutanoic acid] | 1.55 µM | 5 | 7.64 µM |  |  |  |  | 
N#Cc1nc(C(=O)N[C@H](Cc2ccccc2)[C@@H](O)C(=O)O)c(O)c2ccc(Oc3ccccc3)cc12 [Compound 75, (2R,3R)-3-(1-Cyano-4-hydroxy-7-phenoxyisoquinoline-3-carboxamido)-2-hydroxy-4-phenylbutanoic acid] | 1.17 µM | 16 | 18.9 µM |  |  |  |  | 
N#Cc1nc(C(=O)NCC(O)C(=O)O)c(O)c2ccc(Oc3ccccc3)cc12 (stereo not shown) [Compound 76, 3-[(1-Cyano-4-hydroxy-7-phenoxy-isoquinoline-3-carbonyl)-amino]-2-hydroxy-propionic acid] | 0.16 µM | 18 | 2.86 µM |  |  |  |  | 
